Inhibition data for 9 compounds are collected here from patent US8106055B2, “Substituted amide compounds” (Gruenenthal GmbH, priority 2007, dated 2012).

One test addresses T1, human μ opiate receptor (Homo sapiens, UniProt P35372).
T1 construct: purchased PerkinElmer Life Sciences, Zaventem, Belgium RB-HOM; host or cells: CHO-K1 cells (membrane preparation)
The test is described as follows: Affinity for the human μ opiate receptor ([3H]-naloxone displacement, CHO-K1 receptor membrane preparation, SPA). Conditions: 1.5 h, Table 3, to be read in the same way as Table 1; test concentration 1 μM; read-out: μ. It is filed as binding. In short, it runs like this:
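Test compounds, 1 nmol/l [3H]-naloxone and CHO-K1 membranes bearing the human μ opiate receptor are combined with WGA-SPA beads. After 90 minutes at room temperature, plates are centrifuged and radioactivity counted. Specific-binding inhibition at 1 μmol/l is given in percent.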

The target in test [1] is T2, human bradykinin 1 receptor (B1R) (Homo sapiens, UniProt P46663).
T2 construct: expressed in transfected cells; host or cells: CHO K1 cells
T2 sequence (P46663 1-353): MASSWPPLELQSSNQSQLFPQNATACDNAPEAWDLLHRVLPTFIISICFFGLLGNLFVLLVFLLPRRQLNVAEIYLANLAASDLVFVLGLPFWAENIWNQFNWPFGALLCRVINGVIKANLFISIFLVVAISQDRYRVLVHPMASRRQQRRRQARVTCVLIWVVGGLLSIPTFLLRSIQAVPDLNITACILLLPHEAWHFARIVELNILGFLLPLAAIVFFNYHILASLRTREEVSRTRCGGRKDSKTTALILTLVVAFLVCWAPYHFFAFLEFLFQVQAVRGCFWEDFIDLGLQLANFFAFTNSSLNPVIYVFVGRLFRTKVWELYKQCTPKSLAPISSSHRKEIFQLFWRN
Kind of test: Functional investigation on the human bradykinin 1 receptor (B1R), Ca2+ FLIPR assay in CHO K1 hB1R cells. It is filed as cell-based. As to conditions: CHO-K1, B1R antagonism human; test substance 10 μM; Ca2+ FLIPR, CHO K1 hB1R cells; read-out: B1R Ant. h [10 μM] % Inhibition. The procedure, abridged:
(§1)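 Fluo-4 Ca2+ readout, peak fluorescence. Stable CHO K1 transfectants; compound pre-incubated 10-20 min, then EC80 agonist—Lys-Des-Arg9-BK for hB1R, Des-Arg9-BK for rB1R. % inhibition vs maximal inhibition; IC50 from multiple concentrations, duplicate/triplicate, ≥2 independent runs.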

Test [2] addresses T3, bradykinin 1 receptor (B1R) of the rat (Rattus norvegicus, UniProt P97583).
T3 construct: expressed in transfected cells; host or cells: CHO K1 cells
T3 sequence (P97583 1-337): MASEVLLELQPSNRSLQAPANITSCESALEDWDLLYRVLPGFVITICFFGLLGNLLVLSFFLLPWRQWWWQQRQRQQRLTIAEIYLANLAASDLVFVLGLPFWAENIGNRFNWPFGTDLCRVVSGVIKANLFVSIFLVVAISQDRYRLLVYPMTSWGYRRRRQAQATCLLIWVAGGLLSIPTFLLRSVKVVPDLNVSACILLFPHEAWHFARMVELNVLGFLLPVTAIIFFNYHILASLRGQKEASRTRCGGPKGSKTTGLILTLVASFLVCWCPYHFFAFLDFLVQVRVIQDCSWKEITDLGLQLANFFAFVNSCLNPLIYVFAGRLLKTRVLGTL
Kind of test: Functional investigation on the rat bradykinin 1 receptor (B1R), Ca2+ FLIPR assay in CHO K1 rB1R cells. It is filed as cell-based. As to conditions: CHO-K1, B1R antagonism rat; test substance 10 μM; Ca2+ FLIPR, CHO K1 rB1R cells; read-out: B1R Ant. r [10 μM] % Inhibition. The procedure, abridged:
as §1

T1 sequence (P35372 whole entry): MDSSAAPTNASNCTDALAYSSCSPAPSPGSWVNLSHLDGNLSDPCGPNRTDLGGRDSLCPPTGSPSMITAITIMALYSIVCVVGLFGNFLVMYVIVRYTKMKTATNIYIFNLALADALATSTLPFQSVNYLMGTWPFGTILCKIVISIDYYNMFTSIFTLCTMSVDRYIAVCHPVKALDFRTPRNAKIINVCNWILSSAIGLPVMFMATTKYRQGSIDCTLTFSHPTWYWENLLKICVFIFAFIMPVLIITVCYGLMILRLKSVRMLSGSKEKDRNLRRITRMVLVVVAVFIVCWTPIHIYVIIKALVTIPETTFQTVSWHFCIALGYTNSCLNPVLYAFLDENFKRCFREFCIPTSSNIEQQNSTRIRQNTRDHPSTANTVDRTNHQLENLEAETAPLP

As to `COc1cc(C)c(S(=O)(=O)N2CCCCC2COCC(=O)NC2CCC(C(CCc3ccccc3)N3CCOCC3)CC2)c(C)c1` (stereo not drawn) [Example 733, 2-((1-(4-methoxy-2,6-dimethylphenylsulfonyl)piperidin-2-yl)methoxy)-N-(4-(1-morpholino-3-phenylpropyl)cyclohexyl)acetamide], the inhibition at 1 µM on human μ opiate receptor was determined as 21%. The inhibition at 10 µM in test [1] was 87%; in test [2] it was 100%.

Turning to `COc1cc(C)c(S(=O)(=O)N2CCCCC2COCC(=O)NC2CCC(C(CCc3ccccc3)N3CCCCC3)CC2)c(C)c1` (stereo not drawn) [Example 734, 2-((1-(4-methoxy-2,6-dimethylphenylsulfonyl)piperidin-2-yl)methoxy)-N-(4-(3-phenyl-1-(piperidin-1-yl)propyl)cyclohexyl)acetamide], the inhibition at 1 µM at human μ opiate receptor turned out to be 80%. Further, the inhibition at 10 µM in test [1] and in test [2] was 104% each time.

Regarding `COc1cc(C)c(S(=O)(=O)N2CCCCC2COCC(=O)NC2CCC(C(c3ccccc3)N3CCN(C)CC3)CC2)c(C)c1` (stereo not drawn) [Example 735, 2-((1-(4-methoxy-2,6-dimethylphenylsulfonyl)piperidin-2-yl)methoxy)-N-(4-((4-methylpiperazin-1-yl)(phenyl)methyl)cyclohexyl)acetamide], the inhibition at 1 µM on human μ opiate receptor stood at 56%. Further, the inhibition at 10 µM in test [1] and in test [2] was 103% throughout.

As to `COc1cc(C)c(S(=O)(=O)N2CCCCC2COCC(=O)NCC2CCC(C(CCc3ccccc3)N3CCCC3)CC2)c(C)c1` (stereo not drawn) [Example 736, 2-((1-(4-methoxy-2,6-dimethylphenylsulfonyl)piperidin-2-yl)methoxy)-N-((4-(3-phenyl-1-(pyrrolidin-1-yl)propyl)cyclohexyl)methyl)acetamide], the inhibition at 1 µM on human μ opiate receptor turned out to be 34%. Moreover, the inhibition at 10 µM in test [1] came to 103%; in test [2] it was 102%.

Consider `O=C(COCC1CCCCN1S(=O)(=O)c1c(Cl)cc(Cl)cc1Cl)NC1CCC(C(CCc2ccccc2)N2CCOCC2)CC1` (stereo not drawn) [Example 737, N-(4-(1-morpholino-3-phenylpropyl)cyclohexyl)-2-((1-(2,4,6-trichlorophenylsulfonyl)piperidin-2-yl)methoxy)acetamide], for which, on human μ opiate receptor, the inhibition at 1 µM is 22%. Also, the inhibition at 10 µM is 23% in test [1] and 56% in test [2].

As for `O=C(COCC1CCCCN1S(=O)(=O)c1c(Cl)cc(Cl)cc1Cl)NC1CCC(C(CCc2ccccc2)N2CCCCC2)CC1` (stereo not drawn) [Example 738, N-(4-(3-phenyl-1-(piperidin-1-yl)propyl)cyclohexyl)-2-((1-(2,4,6-trichlorophenylsulfonyl)piperidin-2-yl)methoxy)acetamide], on human μ opiate receptor, the inhibition at 1 µM is 77%. The inhibition at 10 µM in test [1] is 75%; in test [2], 62%.

For `CN1CCN(C(c2ccccc2)C2CCC(NC(=O)COCC3CCCCN3S(=O)(=O)c3c(Cl)cc(Cl)cc3Cl)CC2)CC1` (stereo not drawn) [Example 739, N-(4-((4-methylpiperazin-1-yl)(phenyl)methyl)cyclohexyl)-2-((1-(2,4,6-trichlorophenylsulfonyl)piperidin-2-yl)methoxy)acetamide], the inhibition at 1 µM at human μ opiate receptor is 62%. Further, the inhibition at 10 µM in test [1] was 104%; in test [2] it was 87%.

For the compound `COc1cc(C)c(S(=O)(=O)N2CCCC(COCC(=O)NC3CCC(C(CCc4ccccc4)N4CCCCC4)CC3)C2)c(C)c1` (stereo not drawn) [Example 740, 2-((1-(4-methoxy-2,6-dimethylphenylsulfonyl)piperidin-3-yl)methoxy)-N-(4-(3-phenyl-1-(piperidin-1-yl)propyl)cyclohexyl)acetamide], the inhibition at 1 µM at human μ opiate receptor was 15%. Besides, the results for the inhibition at 10 µM in test [1] and in test [2] were 79% and 70%, respectively.

For `O=C(COCC1CCCN(S(=O)(=O)c2c(Cl)cc(Cl)cc2Cl)C1)NC1CCC(C(CCc2ccccc2)N2CCOCC2)CC1` (stereo not drawn) [Example 741, N-(4-(1-morpholino-3-phenylpropyl)cyclohexyl)-2-((1-(2,4,6-trichlorophenylsulfonyl)piperidin-3-yl)methoxy)acetamide], on human μ opiate receptor, the inhibition at 1 µM is 16%. The inhibition at 10 µM in test [1] was -5%; in test [2], 46%.
